The source of these data is the SangsterLogP compilation.

A short description of this data set: method code SF-AS, from DOI: 10.1002/zfch.19780180919.

The logP is a log measure of how a compound divides between an organic and an aqueous phase.

Regarding `NNC(=O)c1ccc(Br)cc1`, the log partition coefficient (logP) stood at 1.28.

Regarding `NNC(=O)c1cccc([N+](=O)[O-])c1`, the log partition coefficient (logP) came out at 0.23.

In turn, `Cc1ccccc1C(=O)NN` yielded a logP of 0.22.

The compound `NNC(=O)c1cccc(Cl)c1` yielded a logP of 1.18. Consider `NNC(=O)c1ccccc1O`, for which the logP was 0.6. For the compound `Cc1cccc(C(=O)NN)c1`, the logP turned out to be 0.74. For `NNC(=O)c1ccccc1[N+](=O)[O-]`, the logP is -0.54. Under `COc1ccccc1C(=O)NN` stands 0.25. In the case of `Cc1ccc(C(=O)NN)cc1`, the logP was determined as 0.73. Under `COc1ccc(C(=O)NN)cc1` stands 0.25; under `NNC(=O)c1ccccc1Cl`, 0.14; under `COc1cccc(C(=O)NN)c1`, 0.4.

Compound `NNC(=O)c1cccc(I)c1` yielded a lipophilicity (logP) of 1.53. Under `NNC(=O)c1cccc(Br)c1` stands 1.26; under `NNC(=O)c1ccccc1I`, 0.47; under `NNC(=O)c1cccc(O)c1`, -0.08. Under `NNC(=O)c1ccccc1N` stands -0.18; under `NNC(=O)c1ccc(I)cc1`, 1.55. With `NNC(=O)c1ccccc1Br`, the logP was found to be 0.26.

For `NNC(=O)c1ccc(Cl)cc1`, the logP is 1.12. The value for `NNC(=O)c1ccc(O)cc1` was -0.33; that for `NNC(=O)c1ccc([N+](=O)[O-])cc1` was 0.35. For `NNC(=O)c1cccc(N)c1`, the logP is -0.86.

For `NNC(=O)c1ccc(N)cc1`, the logP was -0.75.
